Results published in patent US7214824B2, “Substituted N-sulfonylaminobenzyl-2-phenoxyacetamide compounds as VR1 receptor agonists” (Pfizer Inc., priority 2004, dated 2007).

melting point [°C]	Compound
163.1	CC(C)(C)c1ccc(OCC(=O)NCc2ccc(NS(C)(=O)=O)cc2)cc1 [Example 9, 2-(4-tert-Butylphenoxy)-N-{4-[(methylsulfonyl)amino]benzyl}acetamide]
112.3	CC(C)(C)c1ccc(OCC(=O)NCc2ccc(NS(C)(=O)=O)c(O)c2)cc1 [Example 12, 2-(4-tert-Butylphenoxy) -N-{3-hydroxy-4-[(methylsulfonyl)amino]benzyl}acetamide]
